Reference: patent US11723362B2, “Broad-spectrum synergistic antimicrobial compositions” (The United States of America, as represented by the …, priority 2019, dated 2023)

Columns and labels:
[1] = system: Aspergillus brasiliensis ATCC 16404; experiment: Effect of pH on antifungal properties of HW formula under high fungal load; format: cell-based; details: 10^7 CFU/mL, pH 5.5-9.5
Source text: FIG. 1 illustrates the fungicidal properties of a handwash formula containing the inventive composition as further explained in the examples below. The Y axis presents the log reduction of cell forming units per mL (CFU/mL). The X axis presents the pH of the different formulas. Data for benzaldehyde guanylhydrazone 7+CHA is shown with black lines (BGH+CHA); data for benzaldehyde guanylhydrazone 7 (BGH) is shown with dotted lines; data for CHA alone is shown with grey lines.
(§1) This example illustrates the surprising synergistic antimicrobial activity of the inventive composition and related compositions for comparison tested on two of the most persistent microorganisms tested in the USP 51 protocol: A. brasiliensis (ATCC No. 16404) and P. aeruginosa (ATCC NO. 9027). The effect of pH on antifungal properties of a HW formula containing 0.4% 7 and 0.5% CHA, alone and in combination, was then evaluated under a high fungal load (10^7 CFU/mL). […] Without intending to be bound by theory, it was suspected that the poor performance of the combination at neutral pH results from the milder conditions of this formula, which is more encouraging to mold growth.

C. albicans = experiment: Minimum inhibitory concentration (MIC) in Mueller-Hinton broth, pH 7.4; format: cell-based, Candida albicans
Method: (§2) This example illustrates the preparation of testing parameters for antimicrobial activity of components of the inventive composition and related compositions for comparison. […] Microbes were grown on Mueller-Hinton agar (MHA, Sigma-Aldrich, St. Louis, Mo.) for 7 days until heavy sporulation was present. Spores from two agar plates were captured in sterile phosphate-buffered saline (PBS) using a sterile swab. Spores were enumerated by serial dilution in Dey-Engley neutralizing broth (DEB; Sigma-Aldrich) and spread plating on MHA. A typical spore stock was determined to contain ˜2×10^7 spores/mL. Bacteria were grown in MH broth for 24 h at 37° C., enumerated by plating, and diluted to the desired concentration as indicated.
(§3) To assess the antimicrobial activity of hydroxamic acids and derivatives, the inhibitory properties of commercially available hydroxylamines and hydroxamic acids were compared to their alcohol and carboxylic acid analogues diluted in Mueller-Hinton broth at pH 7.4 (Table 1).

S. aureus = experiment: as above; format: cell-based, Staphylococcus aureus
Method: as §2, §3

A. brasiliensis = experiment: as above; format: cell-based, Aspergillus brasiliensis; parameters: Minimum inhibitory concentration: unit not given here; details: for Minimum inhibitory concentration: Table 2
Method: as §2, §3

P. aeruginosa = experiment: as above; format: cell-based, Pseudomonas aeruginosa; parameters: Minimum inhibitory concentration: unit not given here; details: for Minimum inhibitory concentration: Table 2, ATCC 9027
Method: as §2, §3
Guanylhydrazones 7 and 8, which represent a class of broad-spectrum antimicrobials, alone and in combination with hydroxamic acids were evaluated.

E. coli = experiment: as above; format: cell-based, Escherichia coli
Method: as §2, §3

A. brasiliensis 16404 = experiment: USP-51 preservative challenge test of anionic, amphoteric surfactant-containing hand wash; format: cell-based, Aspergillus brasiliensis; details: HW pH 6; formulas: 0.4% 7; 0.5% CHA; 0.2% 7 + 0.5% CHA
Method: (§4) Preservative challenge testing (USP-51).
as §1

[2] = Dissolution / compatibility in water (observation); format: physicochemical
Method: Several aryl derivatives of benzhydroxamic acid were also tested.

[3] = system: Pseudomonas aeruginosa ATCC 9027; experiment: Bactericidal activity in ionic surfactant hand wash / foamy hand soap base formula (HW); format: cell-based; details: pH 7.0
Method: This example illustrates the preparation of testing parameters for antimicrobial activity of components of the inventive composition and related compositions for comparison. […] Mold were grown and minimum inhibitory tests performed as previously reported (see e.g., Buckley, H. L. et al. ACS Sustain. Chem. Eng. 5, 4320-4331, 2017). Microbes were grown on Mueller-Hinton agar (MHA, Sigma-Aldrich, St. Louis, Mo.) for 7 days until heavy sporulation was present. Spores from two agar plates were captured in sterile phosphate-buffered saline (PBS) using a sterile swab. Spores were enumerated by serial dilution in Dey-Engley neutralizing broth (DEB; Sigma-Aldrich) and spread plating on MHA. A typical spore stock was determined to contain ˜2×10^7 spores/mL. Bacteria were grown in MH broth for 24 h at 37° C., enumerated by plating, and diluted to the desired concentration as indicated.
To test the various compounds, a foamy hand soap base formula was made with sodium lauryl sulfate (SLS, 2.4% w/w; Sulfochem SLS-PHP [30% active], The Lubrizol Corporation, Wickliffe, Ohio) and cocoamidopropyl betaine (CAPB, 1.2% w/w; Mackam 35 [30% active], Solvay S.A, Brussels, Belgium) in deionized water and sterilized by filtration (0.22 μm, PVDF; VWR, Radnor, Pa.). All test formulas were adjusted to the desired pH using citric acid and/or NaOH. All tubes were inoculated with 250 μL of spore inoculum (described above) to a total volume of 5 mL, for a final spore concentration of ˜1×10^6 spores/mL in each tube. […] About 100 μL of each inoculated foamy hand soap mixture was diluted 1:10 in DEB and 100 μL of this dilution was spread plated on MHA at several time points (e.g. 3 d, 7 d, 13 d, 18 d, and 20 d). Plates were incubated at room temperature for 3-5 days for mold (1-2 days for bacteria) and colonies enumerated.

[4] = system: Aspergillus brasiliensis ATCC 16404; experiment: Fungicidal activity in ionic surfactant hand wash / foamy hand soap base formula (HW); format: cell-based; details: pH 7.0
Method: as §2
All test formulas were adjusted to the desired pH using citric acid and/or NaOH. […] All tubes were kept at room temperature (˜21-22° C.) for 3 weeks. About 100 μL of each inoculated foamy hand soap mixture was diluted 1:10 in DEB and 100 μL of this dilution was spread plated on MHA at several time points (e.g. 3 d, 7 d, 13 d, 18 d, and 20 d). Plates were incubated at room temperature for 3-5 days for mold (1-2 days for bacteria) and colonies enumerated.
The preservative activity of a hydroxamic acid/guanylhydrazone combination was compared to other antimicrobial mixtures in an ionic surfactant-containing formula. […] The fungicidal properties of a mixture of benzhydroxamic acid and guanylhydrazone (1+7) was compared to commercial antimicrobials representing different functional classes (Table 3).

P. aeruginosa ATCC 9027 = experiment: Tile surface disinfectant test (adapted from ASTM E1153); format: cell-based, Pseudomonas aeruginosa; details: 200 ppm; 4×10^6 CFU/mL; sprayed ceramic tile
Method: Tile surface disinfectant tests. Surface sanitation tests were adapted from ASTM Test Method E1153. Test bacteria (Escherichia coli ATCC 15597 and Pseudomonas aeruginosa ATCC 9027; American Type Culture Collection, Manassas, Va.) were streaked from frozen stock culture onto Mueller-Hinton agar (MHA; Sigma-Aldrich, St Louis, Mo.) and incubated at 30-37° C. for 2-4 days to produce isolated colonies. Two to three representative colonies were picked and transferred to 10 mL Mueller-Hinton broth (MHB; Sigma) and incubated at 37° C. overnight. Cultures underwent a maximum of 3 passes to fresh broth before being incubated for 48 h at 37° C. to be used as the inoculum. Sterile, glazed 2×2-inch ceramic tiles were inoculated with 100 μL of 48 h culture and allowed to dry for <1 h. Spray sanitizer solutions were prepared by mixing the test compound (5) in deionized, filtered water. Benzalkonium chloride (≥95%, Sigma) or bleach solution was used as a positive control and deionized, filtered water was used as a negative control. Solutions were transferred to 250 mL spray bottles, previously checked for spray volume consistency. For each treatment, tiles were sprayed 3 times. At the designated contact time, 15 mL of Dey-Engley broth (DEB; Sigma) was poured onto the tiles. Tiles were briskly swirled 50 times with DEB to neutralize antimicrobial agents and recover bacteria. This procedure was followed in duplicate for each treatment and contact time. The sanitizer-DEB solutions were then serially diluted in phosphate-buffered saline and plated on MHA. MHA plates were incubated at 37° C. for 18-24 h and colonies enumerated. To determine log reduction, bacteria recovered from treated tiles were compared to bacteria recovered from 2-3 replicate inoculated, untreated tiles.

mold = experiment: USP <51> preservative efficacy in nonionic spray cleaner base (mold); format: cell-based, A. brasiliensis; details: alone, 0.1% in spray cleaner base
Source text: as §4

S. aureus ATCC 6538 = experiment: AOAC Use Dilution test; format: cell-based, Staphylococcus aureus; details: 60 carriers tested, ten minutes contact time
Method: (§5) MICROCHEM Laboratories completed the AOAC Use dilution, semi-quantitative test method against the 3 strains of bacteria using the maximum contact time of ten minutes with three replicates from the same sample submission. For the S. aureus testing, MICROCHEM Laboratories followed ASTM E2315 method with a 10 minute exposure but only a single replicate was tested. The ASTM E2315 quantitative test method was used by MICROCHEM Laboratories to access the performance of a single replicate of the test compounds against the MS2 virus using a 10 minute contact time.
(§6) The killing efficacy of Cuminaldehyde Guanylhydrazone (CG) in water against three bacteria was evaluated using the AOAC Use Dilution test. While a passing kill rate against Pseudomonas aeruginosa, and a close to, but just below the target kill rate, for Salmonella enterica were detected, a kill rate against Staphylococcus aureus was not achieved. The test results were the same for both concentrations tested (0.2 wt. % and 0.5 wt. %).

[5] = system: E. coli, S. aureus, P. aeruginosa, A. brasiliensis, B. cepacia, and C. albicans; details: 0.2% in nonionic spray cleaner base lacking additional preservatives; 28 days
Source text: Preservative challenge testing (USP-51). The protocol for the preservative challenge testing followed the US Pharmacopeia Chapter 51 (USP 51). Under the USP 51 protocol, the test organisms are Candida albicans (ATCC No. 10231), Aspergillus brasiliensis (also referred to as A. niger) (ATCC No. 16404), Escherichia coli (ATCC No. 8739), Pseudomonas aeruginosa (ATCC No. 9027), and Staphylococcus aureus (ATCC No. 6538). To access the potency of a preservative in a personal care product formula, microorganisms were added separately to a sample of the product formula, such that their final concentrations were between 1.00E+05 and 1.00E+06 CFU (colony forming units)/mL of product. The inoculated personal care product formulas were incubated at specific temperatures (relative to the organism) and plated over the course of two weeks. During plating, the number of colony-forming units (CFU's) were counted to determine the number of viable microbial cells still present in the solution. Antimicrobial effectiveness is determined by logarithmic reductions in growth over time.
The effect of CG on mold, bacteria, and yeast were tested following the USP <51> procedure. […] For the instant examples, the criteria for passing the USP 51 preservative efficacy protocol against bacteria is a reduction of not less than 2-log 10 from the initial count at 14 days, and no increase from the 14 day count at 28 days. […]

[6] = Stability of CG in commercial household products; format: physicochemical; details: nonionic spray cleaners, polishes, hand soap, liquid dish soap; refrigerator (2.8° C.), room temperature (21.1° C.), oven (40° C.), 3 freeze-thaw cycles
Method: Freeze-thaw studies were conducted using a commercial refrigerator freezer and were completed over a two week period where the samples were frozen, thawed and observed for 3 cycles. Additional samples were stored in 15 mL Falcon tubes in the refrigerator, at room temperature and in a 40° C. oven. These samples were removed and evaluated at three time points in conjunction with the freeze-thaw samples. The compositions of the household products in which CG was stable are listed below in tables 13 and 14. The “Surfactant Control” was composed as follows: 4% 1,3-propanediol, 4% alkyl polyglucoside (C8-C16), 2% ethoxylated fatty alcohol (Clariant Genapol LA 070), 90% deionized water. Cuminaldehyde Guanylhydrazone (CG) was added to several different commercial products. Stability testing was performed in refrigerator (2.8° C.), at room temperature (21.1° C.), in an oven (40° C.), and through 3 freeze-thaw cycles. It was determined that CG was stable in at least 4 different classes of household products including nonionic spray cleaners, polishes, hand soap, and liquid dish soap. […] Not intending to be theory-bound, these instabilities may be attributed mainly to carbonate, anionic surfactants, or high pH.

S. enterica ATCC 10708 = experiment: AOAC Use Dilution test; format: cell-based, Salmonella enterica; details: 60 carriers tested, ten minutes contact time
Method: as §5, §6

P. aeruginosa ATCC 15442 = experiment: AOAC Use Dilution test; format: cell-based, Pseudomonas aeruginosa; details: 60 carriers tested, ten minutes contact time
Method: as §5, §6

[7] = hand soap formula, 0.2 wt % 8 alone
[8] = hand soap formula, 0.3 wt % 8 alone, minimum detection limit 5.0 × 10^1
[9] = HW, substance alone 0.1%, 1 × 10^6 CFU/ml, 37° C.

CCCCCCCC(=O)NO [Caprylhydroxamic acid (CHA), Caprylhydroxamic acid]
log reduction over the entire pH range ([1]; HW with 0.5% CHA alone, plated six days after inoculation): 0-1 log
MIC (C. albicans): 0.03 wt %
MIC (S. aureus): 0.2 wt %
MIC (A. brasiliensis): 0.03 wt %
Minimum inhibitory concentration (A. brasiliensis): 0.03
MIC (P. aeruginosa): 0.5 wt %
Minimum inhibitory concentration (P. aeruginosa): 0.5
MIC (E. coli): 0.1 wt %
Log10 Reduction, Day 6 (A. brasiliensis 16404): 2.24 Log10
dissolution behaviour ([2]; solubilizing for testing, room temperature): required heating and stirring to solubilize

CCCCCCCCc1ccc(C=NNC(=N)N)cc1 [4-n-octylbenzaldehyde guanylhydrazone 8, 4-n-octylbenzaldehyde guanylhydrazone]
CFU/mL after 7 d contact time [3, 7]: >2 × 10^4 CFU/mL
CFU/mL after 7 d contact time [4, 7]: >2 × 10^4 CFU/mL
CFU/mL, incubation time 3 d [4, 8]: >2.5 × 10^4 CFU/mL
CFU/mL, incubation time 7 d [4, 8]: >2.5 × 10^4 CFU/mL
CFU/mL, incubation time 13 d [4, 8]: >2.5 × 10^4 CFU/mL
CFU/mL, incubation time 18 d [4, 8]: >2.5 × 10^4 CFU/mL
CFU/mL, incubation time 20 d [4, 8]: >2.5 × 10^4 CFU/mL
Minimum inhibitory concentration (A. brasiliensis): 0.002
compatibility in water ([2]; sample preparation for extended preservative test): not compatible in water

OCl [sodium hypochlorite]
reduction at 15 seconds (P. aeruginosa ATCC 9027): 97.44%
reduction at 5 min (P. aeruginosa ATCC 9027): > 99.998%
reduction at 10 min (P. aeruginosa ATCC 9027): > 99.998%

O=C([O-])c1ccccc1.[Na+] [Sodium benzoate, sodium benzoate]
log reduction of mold (not eliminated to nondetectable levels) (mold): < 2 log

CC(C)c1ccc(/C=N/NC(=N)N)cc1 [CG, (2E)-2-{[4-(propan-2-yl)phenyl]methylidene} hydrazine-1-carboximidamidium]
log reduction of mold (not eliminated to nondetectable levels) (mold): < 4 log
Confirmed Positive carriers (S. aureus ATCC 6538; CG 0.2 wt. % in water): 12
Result (S. aureus ATCC 6538; CG 0.2 wt. % in water): Fail (3)
Confirmed Positive carriers (S. aureus ATCC 6538; CG 0.5 wt. % in water): 12
Result (S. aureus ATCC 6538; CG 0.5 wt. % in water): Fail (3)
USP 51 preservative efficacy protocol result against bacteria, yeast, and mold [5]: passed
stability in household products [6]: stable
Confirmed Positive carriers (S. enterica ATCC 10708; CG 0.2 wt. % in water): 2
Result (S. enterica ATCC 10708; CG 0.2 wt. % in water): Fail (2)
Confirmed Positive carriers (S. enterica ATCC 10708; CG 0.5 wt. % in water): 2
Result (S. enterica ATCC 10708; CG 0.5 wt. % in water): Fail (2)
Confirmed Positive carriers (P. aeruginosa ATCC 15442; CG 0.2 wt. % in water): 2
Result (P. aeruginosa ATCC 15442; CG 0.2 wt. % in water): Pass (6)
Confirmed Positive carriers (P. aeruginosa ATCC 15442; CG 0.5 wt. % in water): 2
Result (P. aeruginosa ATCC 15442; CG 0.5 wt. % in water): Pass (6)

N=C(N)NN=Cc1ccccc1 [Benzaldehyde guanylhydrazone 7, Benzaldehyde guanylhydrazone]
antifungal performance over the pH range ([1]; HW with 0.4% 7 alone): poor performance, except at high pH
Day 3 Log Reduction [3, 9]: 4 Log
Day 10 Log Reduction [3, 9]: 4 Log
Log reduction Week 2 ([4]; HW, 0.4 wt %, 1 × 10^6 CFU/mL, 25° C.): none
Minimum inhibitory concentration (P. aeruginosa): 0.06
Log10 Reduction, Day 6 (A. brasiliensis 16404): 0.35 Log10
